Measurements from US20230310356A1, “COMPOSITION FOR PREVENTING, AMELIORATING, OR TREATING BRAIN DAMAGE AND MILD COGNITIVE IMPAIRMENT COMPRISING GLUTAMINE AS EFFECTIVE COMPONENT” (INDUSTRY-ACADEMIC COOPERATION FOUNDATION GYEONGSANG …, priority 2020, published 2023).

Tests used:
[1] = system: C57BL/6 female mouse (NonTg); experiment: ORT cognitive ability test in normal control mouse with glutamine diet; type: in vivo; details: until the 6-months old stage, 150 mg glutamine/kg diet
Procedure: (§1) As an animal model for cognitive ability evaluation, a 7-weeks old 3×TG-AD female mouse (8 mice. model of Alzheimer's disease) and a C57BL/6 female mouse (10 mice, control) were selected. The animals of each type were divided into 2 groups, and each group was provided with regular animal feed (i.e., normal diet, ND) or glutamine feed (Gln). The glutamine diet group was allowed to consume the feed containing 150 mg glutamine/kg diet, from 2-months old stage to the end of test (i.e., 6 to 7-months old stage). Health state of the animal was checked by measuring, once a week, the bodyweight of the animal and food intake (FIG. 7A). Cognitive ability test of the mouse as an animal model established above was determined by ORT (object recognition test). The animal was habituated in a box for 2 days. On Day 3, it was allowed to explore two identical objects for 10 minutes. On Day 4, one of the two objects was replaced with a novel object, and then, the animal was allowed to explore further for 5 minutes (FIG. 7B). The time spent by animal for exploring after approaching within 1 cm from the periphery of both objects was measured. After carrying out the calculation using Formula (3) below, DI (discrimination index) was calculated and compared to each other. In the present invention, a different novel object was employed for carrying out each test. […]

normal mouse = experiment: Cognitive ability of normal mouse after oral administration of glutamine (Y-maze, ORT, OLT); type: in vivo
Procedure: To determine if there is also an effect of orally administered glutamine on improving the cognitive ability of a normal mouse, 2 hours later glutamine administration, any improvement in cognitive ability was examined. The cognitive ability was tested by using Y-maze for testing short-term memory and ORT and OLT (object location recognition test) for testing long-term memory. Y-maze: To a Y-shaped maze consisting of 3 arms that are spread at 120° angle from each other and designated as A, B, and C, respectively, a mouse was introduced. Then, the spontaneous alternation indicating an entrance into different arms, 3 times consecutively, was applied to the following Formula (4) and the calculation was made (FIG. 10A). Three consecutive spontaneous alternation=[(Number of consecutive entry into different arms)/(Total number of arm entries−2)]×100 Formula (4) ORT/OLT: ORT was carried out for 10 minutes as described above, and, 24 hours later, one of the objects was translocated to a new spot and the animal was allowed to explore again for 5 minutes (FIG. 10B).

[2] = system: 3×TG-AD female mouse (model of Alzheimer's disease); experiment: ORT cognitive ability test in animal model of Alzheimer's disease with glutamine diet; type: in vivo; details: 6-weel old compared to the 2-weeks old
Procedure: as §1

iNOS = experiment: Double-IHC protein expression after CIS and glutamine supplementation: iNOS; type: in vivo, mouse; details: microglial cells in infralimbic cortex and hippocampal CA1 region; glutamine supplementation diet vs stress group
Procedure: Control (CTL) is a group which received normal diet (common diet with nutritional balance) without any stress, CTL+Gln group is a normal diet group supplemented with glutamine (150 mg/kg of feed) and without any stress, STR is a normal diet group under stress, and STR+Gln group is a normal diet group supplemented with glutamine (150 mg/kg of feed) under stress. The stress group (STR) was individually brought by force to a restrainer for 2 hours every day (i.e., between 2 PM and 4 PM) so that the animals are applied with chronic immobilization stress for 15 days. To determine the specific changes in the brain tissues after glutamine supplementation, double staining was carried out with a cell marker so that the proteins related to a change in ROS/RNS content (i.e., iNOS; nNOS; and p47phox and p67phox as a subunit of NOX) with cell markers are analyzed by double-IHC (immunohistochemistry). Twenty-four hours after applying the last stress, the mouse was anesthetized with avertin, and perfused with PBS (pH 7.4) and 4% formaldehyde. After that, the brain was removed, fixed, and cut to a thickness with 40 μm. […]

[3] = oral glutamine, long-term memory, compared to the normal mouse

NC(=O)CC[C@H](N)C(=O)O [glutamine]
cognitive ability (ORT) change caused by glutamine diet [1]: no change | spontaneous alternation of Y-maze test (normal mouse; 2 hours later glutamine oral administration, short-term memory): no difference | cognitive ability in OLT (normal mouse; [3]): more enhanced cognitive ability | cognitive ability in ORT (normal mouse; [3]): more enhanced cognitive ability | impairment in cognitive ability (object recognition ability, ORT) ([2]; 3×TG-AD glutamine diet group, 150 mg glutamine/kg diet): no significant impairment | decrease of DI value in ORT ([2]; 3×TG-AD group with glutamine diet, average from each individual): 0.1 | expression amount of iNOS (iNOS): statistically significant decrement
